Molecules are shown by their SMILES.

The values that follow come from article PMC4767442 (Oncotarget, 2015).

For one data set, the system named is MCF-7 cells. The data set can be described thus: 59Fe mobilization from cells prelabeled with 59Fe-transferrin. It counts as cell-based, human. As to conditions: MCF-7 prelabeled with 59Fe-transferrin, compounds 25 μmol·L^−1, 3 h/37°C. As to the method:
Iron chelation efficiency of the compounds at a concentration of 10 μmol·L^−1 was determined via 3 methods: (1) the calcein assay; (2) the ability of the ligands to induce ^59Fe mobilization from cells prelabeled with ^59Fe-transferrin; and (3) the efficacy of these agents to inhibit the uptake of ^59Fe from ^59Fe-transferrin [22, 38–40].
The fluorimetric calcein-AM assay was performed by established methods, as described previously. The Fe chelation efficiency of the metabolites in cells was expressed as a percentage of that of the parent chelator, Dp44mT or DpC (100%). For studies assessing the ability of these agents to induce ^59Fe mobilization and inhibit ^59Fe uptake from ^59Fe-transferrin by cells, human transferrin (Sigma-Aldrich, Germany) was labeled with ^59Fe (PerkinElmer, MA, USA) to generate ^59Fe-transferrin at a final specific activity of 500 pCi/pmol Fe, as previously described. The unbound ^59Fe was removed by exhaustive vacuum dialysis against a large excess of 0.15 M NaCl buffered to pH 7.4 with 1.4% NaHCO3 by standard methods.
To examine the ability of the studied substances to mobilize ^59Fe from MCF-7 cells or inhibit ^59Fe uptake from ^59Fe-transferrin, established techniques were utilized. For ^59Fe mobilization studies, cells were preincubated with ^59Fe-transferrin (0.75 μmol·L^−1) for 3 h/37°C, washed 4 times at 4°C on ice, and then reincubated with control medium or control medium containing the compounds (25 μmol·L^−1) for 3 h/37°C. The release of ^59Fe from the cells into the overlying medium was then examined by collecting both the cells and overlying medium and assessing ^59Fe levels using a γ-counter. For studies examining the ability of the agents to inhibit ^59Fe uptake from ^59Fe-transferrin, cells were incubated for 3 h/37°C with ^59Fe-transferrin (0.75 μmol·L^−1) in the presence or absence of the agents (25 μmol·L^−1), and then washed 4 times at 4°C on ice. The internalization of ^59Fe by cells was then assessed by incubation for 30 min/4°C with the general protease, Pronase (1 mg/mL), utilizing standard techniques. The amount of internalized ^59Fe in the presence of the agents was expressed as a percentage of ^59Fe internalized by control cells incubated in the presence of control media alone.

Details of data set [1]: method as in earlier work. As to conditions: chronically repeated dosing at high non-optimal levels (Dp44mT, mice, ref 1); DpC at markedly higher doses; cited from earlier work.
Data set [2] deals with cancer cell lines (HL-60, MCF-7 and HCT116). The data set can be described thus: MTT assay, cancer cell lines as a group. It counts as cell-based. As to conditions: Homo sapiens, HL-60, MCF-7, HCT116, 72 h/37°C, read-out: IC50 against cancer cells (range over cell lines). The protocol: (§1) The MCF-7 human breast adenocarcinoma cell line was purchased from the European Collection of Cell Cultures (U.K.). The HL-60 human promyelocytic leukemia cell line, HCT116 human colorectal carcinoma cell line, H9c2 rat heart-derived myoblast cell line and 3T3 mouse embryo fibroblast line, were obtained from the American Type Culture Collection (VA, U.S.A.). Cells were cultured in Dulbecco's modified Eagle's medium (DMEM, Lonza, Switzerland) with or without (for MCF-7 cells only) phenol red, supplemented with 10% heat-inactivated fetal bovine serum (FBS; Lonza, Switzerland), 1% penicillin/streptomycin solution (Lonza, Switzerland) and 10 mM HEPES buffer (pH 7.0-7.6; Sigma-Aldrich, Germany). The HL-60 cell line was maintained in RPMI medium (Sigma-Aldrich, Germany) supplemented with 10% heat-inactivated FBS and 1% penicillin/streptomycin solution. All cell lines were cultured in 75 cm^2 tissue culture flasks (Switzerland) at 37°C in a humidified atmosphere of 5% CO2. Sub-confluent cells or, in the case of HL-60 cells, a cell suspension, were sub-cultured every 3-4 days.
(§2) Cells were seeded in 96-well plates for 24 h/37°C at a density of 5,000 (MCF-7), 10,000 (HL-60), 2,000 (HCT116) and 10,000 (3T3 and H9c2) cells/well. For 3T3 and H9c2 cells, the medium was changed to serum- and pyruvate-free DMEM 24 h prior to the experiments. Anti-proliferative and cytotoxicity effects of the compounds were studied at different concentrations after incubations for 72 h/37°C. Viabilities of cells were determined using MTT assays (Sigma-Aldrich, Germany) according to the manufacturer's instructions on a Tecan Infinite 200M plate reader (Tecan, Austria). The proliferation/viability of treated groups was expressed as a percentage of the untreated controls (100%).

Data set [3] in a line: Long-term stability in plasma samples at -80°C. It is filed as in vitro ADME, rat. As to conditions: for Long-term stability: plasma, -80°C, 7 days; for decomposition on storage (in words): up to 7 days stored at −80°C. As to the method: The UHPLC-MS/MS methods for quantitative assays were validated with respect to selectivity, linearity, precision, accuracy, stability, recovery, matrix effects and dilution integrity (see […]
Linearity was examined over the concentration ranges described in Supplementary Table 1 using a weighted (1/x 2) linear regression in GraphPad Prism 6 (v. 6.04, GraphPad Software […]
Stability was assessed at low, medium and high concentration levels. Long -term stability was assessed for plasma samples at -80°C over a period of 7 days (three aliquots per level; Supplementary Table 3). […]

Data set [4] concerns MCF-7 human breast adenocarcinoma cell line. The data set can be described thus: MTT proliferation/viability assay, MCF-7. It counts as cell-based. The note with it: MCF7, 72 h/37°C, mean ± S.D. As to the method:
as §1, §2

[5] abbreviates: high concentration level (2.105-3.115 µmol·L-1).
Setting [6] is: low concentration level (0.035-0.156 µmol·L-1).
The mark [7] stands for this setting: medium concentration level (0.702-1.558 µmol·L-1).

With `CN(C)C(=S)NN=C(c1ccccn1)c1ccccn1` [Dp44mT, di(2-pyridyl)ketone 4,4-dimethyl-3-thiosemicarbazone], the “59Fe mobilization, % of cellular 59Fe” value in the data set on MCF-7 cells was 51%. Further, the cardiac fibrosis entry in data set [1] is given as “cardiac fibrosis was demonstrated”. Besides, the IC50 in data set [2] was 2 to 9 nM; in data set [4] it was 9 ± 2 nM. In addition, the Long-term stability amounted to 94.93% in data set [3] (setting [5]), 112.56% in data set [3] (setting [6]) and 108.06% in data set [3] (setting [7]). Besides, the “decomposition on storage (in words)” value in data set [3] is on record as “No significant decomposition”.

For the molecule `CN(C(=S)NN=C(c1ccccn1)c1ccccn1)C1CCCCC1` [DpC, di(2-pyridyl)ketone 4-cyclohexyl-4-methyl-3-thiosemicarbazone], the “59Fe mobilization, % of cellular 59Fe” value with MCF-7 cells was 44%. Besides, the cardiac fibrosis result in data set [1] was “does not induce cardiac fibrosis”. For the same molecule, the IC50 was 3 to 5 nM in data set [2] and 3 ± 1 nM in data set [4]. Besides, the Long-term stability in data set [3] (setting [5]) was determined as 112.39%; in data set [3] (setting [6]), 85.12%; in data set [3] (setting [7]) it was 87.76%. In data set [3], the “decomposition on storage (in words)” value was “No significant decomposition”.

Broadly, the IC50 is the concentration needed to halve the response being measured.
